From US10233191B2, “Fused piperidine amides as modulators of ion channels” (Vertex Pharmaceuticals Incorporated, priority 2013, dated 2019)

Target: T1, NaV 1.7 (Homo sapiens, UniProt Q15858)
T1 construct: expressed in transfected cells; host or cells: HEK cells
Test: E-VIPR optical membrane potential assay with electrical stimulation
Format: cell-based
Conditions: active against one or more sodium channels; assay/subtype not specified in Table 4; read-out: IC50 Binned Activity Data
Text: E-VIPR Optical Membrane Potential Assay Method with Electrical Stimulation
Sodium channels are voltage-dependent proteins that can be activated by inducing membrane voltage changes by applying electric fields. The electrical stimulation instrument and methods of use are described in Ion Channel Assay Methods PCT/US01/21652, herein incorporated by reference and are referred to as E-VIPR. The instrument comprises a microtiter plate handler, an optical system for exciting the coumarin dye while simultaneously recording the coumarin and oxonol emissions, a waveform generator, a current- or voltage-controlled amplifier, and a device for inserting electrodes in well. Under integrated computer control, this instrument passes user-programmed electrical stimulus protocols to cells within the wells of the microtiter plate.
24 hours before the assay on E-VIPR, HEK cells expressing human NaV subtype, like NaV 1.7, are seeded in 384-well poly-lysine coated plates at 15,000-20,000 cells per well. Other subtypes are performed in an analogous mode in a cell line expressing the NaV of interest. HEK cells are grown in media (exact composition is specific to each cell type and NaV subtype) supplemented with 10% FBS (Fetal Bovine Serum, qualified; GibcoBRL #16140-071) and 1% Pen-Strep (Penicillin-Streptomycin; GibcoBRL #15140-122). Cells are grown in vented cap flasks, in 90% humidity and 10% CO2, to 100% confluence. They are usually split by trypsinization 1:10 or 1:20, depending on scheduling needs, and grown for 2-3 days before the next split.
• 100 mg/mL Pluronic F-127 (Sigma #P2443), in dry DMSO • Compound Plates: 384-well round bottom plate, e.g. Corning 384-well Polypropylene Round Bottom #3656 • Cell Plates: 384-well tissue culture treated plate, e.g. Greiner #781091-1B • 10 mM DiSBAC6(3) (Aurora #00-100-010) in dry DMSO • 10 mM CC2-DMPE (Aurora #00-100-008) in dry DMSO • 200 mM ABSC1 in H2O
Bath1 buffer. Glucose 10 mM (1.8 g/L), Magnesium Chloride (Anhydrous), 1 mM (0.095 g/L), Calcium Chloride, 2 mM (0.222 g/L), HEPES 10 mM (2.38 g/L), Potassium Chloride, 4.5 mM (0.335 g/L), Sodium Chloride 160 mM (9.35 g/L).
Hexyl Dye Solution: Bath1 Buffer+0.5% β-cyclodextrin (make this prior to use, Sigma #C4767), 8 μM CC2-DMPE+2.5 μM DiSBAC6(3). To make the solution Add volume of 10% Pluronic F127 stock equal to volumes of CC2-DMPE+DiSBAC6(3). The order of preparation is first mix Pluronic and CC2-DMPE, then add DiSBAC6(3) while vortexing, then add Bath1+β-Cyclodextrin.
1) Pre-spot compounds (in neat DMSO) into compound plates. Vehicle control (neat DMSO), the positive control (20 mM DMSO stock tetracaine, 125 μM final in assay) and test compounds are added to each well at 160× desired final concentration in neat DMSO. Final compound plate volume will be 80 μL (80-fold intermediate dilution from 1 μL DMSO spot; 160-fold final dilution after transfer to cell plate). Final DMSO concentration for all wells in assay is 0.625%.
2) Prepare Hexyl Dye Solution.
3) Prepare cell plates. On the day of the assay, medium is aspirated and cells are washed three times with 100 μL of Bath1 Solution, maintaining 25 μL residual volume in each well.
4) Dispense 25 μL per well of Hexyl Dye Solution into cell plates. Incubate for 20-35 minutes at room temp or ambient conditions.
5) Dispense 80 μL per well of Bath1 into compound plates. Acid Yellow-17 (1 mM) is added and Potassium Chloride can be altered from 4.5 to 20 mM depending on the NaV subtype and assay sensitivity.
6) Wash cell plates three times with 100 μL per well of Bath1, leaving 25 μL of residual volume. Then transfer 25 uL per well from Compound Plates to Cell Plates. Incubate for 20-35 minutes at room temp/ambient condition
7) Read Plate on E-VIPR. Use the current-controlled amplifier to deliver stimulation wave pulses for typically 9 seconds and a scan rate of 400 Hz. A pre-stimulus recording is performed for 0.5 seconds to obtain the un-stimulated intensities baseline. […]

T1 sequence (Q15858 whole entry): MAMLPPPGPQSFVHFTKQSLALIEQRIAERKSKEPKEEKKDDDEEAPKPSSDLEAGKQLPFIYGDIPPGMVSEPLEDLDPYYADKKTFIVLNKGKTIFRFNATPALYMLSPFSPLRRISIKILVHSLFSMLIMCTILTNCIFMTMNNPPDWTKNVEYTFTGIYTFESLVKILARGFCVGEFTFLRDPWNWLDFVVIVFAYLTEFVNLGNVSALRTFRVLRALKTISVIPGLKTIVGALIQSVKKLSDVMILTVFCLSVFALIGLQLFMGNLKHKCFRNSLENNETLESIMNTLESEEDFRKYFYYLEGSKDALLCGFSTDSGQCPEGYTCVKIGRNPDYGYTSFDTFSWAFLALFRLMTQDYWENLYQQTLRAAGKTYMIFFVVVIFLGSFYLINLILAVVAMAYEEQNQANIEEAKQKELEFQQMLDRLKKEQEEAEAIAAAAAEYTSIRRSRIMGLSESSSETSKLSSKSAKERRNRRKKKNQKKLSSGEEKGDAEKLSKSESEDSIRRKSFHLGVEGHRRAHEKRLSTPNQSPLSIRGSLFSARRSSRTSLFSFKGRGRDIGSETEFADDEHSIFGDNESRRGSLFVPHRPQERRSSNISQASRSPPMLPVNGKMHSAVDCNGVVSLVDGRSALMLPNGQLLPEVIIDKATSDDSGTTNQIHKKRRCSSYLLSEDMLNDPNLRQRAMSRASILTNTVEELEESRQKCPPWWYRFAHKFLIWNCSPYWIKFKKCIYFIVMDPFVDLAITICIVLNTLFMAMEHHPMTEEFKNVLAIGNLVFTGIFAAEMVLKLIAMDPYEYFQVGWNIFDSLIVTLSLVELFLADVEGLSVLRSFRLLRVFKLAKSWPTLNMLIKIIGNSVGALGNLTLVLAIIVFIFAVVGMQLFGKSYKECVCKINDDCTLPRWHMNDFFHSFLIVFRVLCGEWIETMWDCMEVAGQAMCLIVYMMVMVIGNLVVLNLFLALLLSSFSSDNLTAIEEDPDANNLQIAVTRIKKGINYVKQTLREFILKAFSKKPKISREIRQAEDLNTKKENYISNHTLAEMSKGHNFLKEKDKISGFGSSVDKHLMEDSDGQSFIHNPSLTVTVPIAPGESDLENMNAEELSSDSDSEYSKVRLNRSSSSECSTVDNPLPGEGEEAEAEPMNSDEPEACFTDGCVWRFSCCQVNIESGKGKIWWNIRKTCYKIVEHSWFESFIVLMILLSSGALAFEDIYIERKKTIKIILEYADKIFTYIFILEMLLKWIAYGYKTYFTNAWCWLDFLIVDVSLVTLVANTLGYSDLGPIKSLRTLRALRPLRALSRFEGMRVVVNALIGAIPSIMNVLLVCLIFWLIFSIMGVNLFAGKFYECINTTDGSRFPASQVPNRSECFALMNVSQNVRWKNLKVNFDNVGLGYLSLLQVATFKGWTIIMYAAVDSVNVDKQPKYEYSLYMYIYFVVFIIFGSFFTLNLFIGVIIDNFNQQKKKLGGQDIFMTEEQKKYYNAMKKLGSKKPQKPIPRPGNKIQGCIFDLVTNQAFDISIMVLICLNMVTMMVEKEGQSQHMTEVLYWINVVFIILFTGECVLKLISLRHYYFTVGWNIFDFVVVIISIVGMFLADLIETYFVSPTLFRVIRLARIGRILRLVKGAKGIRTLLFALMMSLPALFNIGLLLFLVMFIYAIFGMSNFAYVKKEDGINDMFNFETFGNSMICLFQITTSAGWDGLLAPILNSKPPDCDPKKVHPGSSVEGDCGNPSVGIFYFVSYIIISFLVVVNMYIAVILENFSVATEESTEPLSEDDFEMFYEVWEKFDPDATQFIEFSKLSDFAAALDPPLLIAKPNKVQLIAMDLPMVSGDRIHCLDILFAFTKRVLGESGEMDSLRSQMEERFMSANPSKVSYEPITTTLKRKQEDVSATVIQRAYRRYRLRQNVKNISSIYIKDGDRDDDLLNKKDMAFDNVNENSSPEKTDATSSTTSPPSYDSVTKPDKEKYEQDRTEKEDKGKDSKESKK

IC50 [nM] | SMILES
≤ 2000 | Cc1cc(C(=O)N2CC[C@@]3(c4ccc(F)cc4)OCOC3C2)ccc1OCC(C)(C)O (stereo partly drawn) [Compound 58]
≤ 2000 | O=C(c1ccc(OCCOC(F)(F)F)c(F)c1)N1CC[C@@]2(c3nccs3)OCOC2C1 (stereo partly drawn) [Compound 59]
≤ 2000 | COc1nc(C(=O)N2CCC3(c4ccccc4)CC3C2)ccc1OCC(C)(C)O (stereo not drawn) [Compound 60]
≤ 2000 | COc1cc(C(=O)N2CC[C@]3(c4ccccn4)OCOC3C2)ccc1OC(C)CC(F)(F)F (stereo partly drawn) [Compound 61]
2000 to 5000 | O=C(c1ccc(OCCOC(F)(F)F)c(F)c1)N1CC[C@]2(c3nccs3)OCOC2C1 (stereo partly drawn) [Compound 62]
≤ 2000 | Cc1cc(C(=O)N2CC[C@@]3(c4nccs4)OCOC3C2)ccc1OCC(F)(F)F (stereo partly drawn) [Compound 63]
≤ 2000 | COc1cc(C(=O)N2CC[C@@]3(c4ccccn4)COC[C@H]3C2)ccc1OCCOC(F)(F)F [Compound 64]
≤ 2000 | COc1cc(C(=O)N2CCC3(c4ccccc4)CC3C2)ccc1OCC1CCCO1 (stereo not drawn) [Compound 65]
≤ 2000 | COc1cc(C(=O)N2CCC3(c4ccccn4)OCCC3C2)ccc1OCCOC(F)(F)F (stereo not drawn) [Compound 66]
≤ 2000 | Cc1nc(C(=O)N2CC[C@]3(c4ncccc4Cl)OCOC3C2)ccc1OC(C)C (stereo partly drawn) [Compound 67]
≤ 2000 | COc1cc(C(=O)N2CCC3(c4ccccn4)OCOC3C2)ccc1OCCOC(F)(F)F (stereo not drawn) [Compound 68]
≤ 2000 | CC(C)(C)OCCOc1ccc(C(=O)N2CC[C@]3(c4ccccn4)OCOC3C2)cc1Cl (stereo partly drawn) [Compound 69]
≤ 2000 | Cc1cc(C(=O)N2CC[C@]3(c4nccs4)OCOC3C2)ccc1OCC(F)(F)F (stereo partly drawn) [Compound 70]
≤ 2000 | COc1cc(C(=O)N2CC[C@]3(c4ccccc4)OCOC3C2)ccc1OCC(C)(C)F (stereo partly drawn) [Compound 71]
≤ 2000 | COc1cc(C(=O)N2CC[C@]3(c4ccccn4)OCO[C@@H]3C2)ccc1OC(C)C(F)(F)F (stereo partly drawn) [Compound 72]
≤ 2000 | Cc1cc(C(=O)N2CC[C@@]3(c4ccccc4)OCOC3C2)ccc1OCC(C)(C)O (stereo partly drawn) [Compound 73]
≤ 2000 | Cc1nc([C@]23CCN(C(=O)c4ccc(OCC(C)(C)F)c(C)c4)CC2OCO3)cs1 (stereo partly drawn) [Compound 74]
≤ 2000 | Cc1cc(C(=O)N2CC[C@]3(c4ccccc4)OCOC3C2)ccc1OCC(C)(C)O (stereo partly drawn) [Compound 75]
≤ 2000 | O=C(c1cccc2cccnc12)N1CC[C@]2(c3ccccc3)OCOC2C1 (stereo partly drawn) [Compound 76]
≤ 2000 | Cc1cc(C(=O)N2CC[C@]3(c4ccccc4)OCOC3C2)ccc1OC(C)C (stereo partly drawn) [Compound 77]
≤ 2000 | COc1cc(C(=O)N2CC[C@@]3(c4csc(C)n4)OCOC3C2)ccc1OCCOC(F)(F)F (stereo partly drawn) [Compound 78]
≤ 2000 | Cc1cc(C(=O)N2CCC3(c4ccccc4)CC3C2)ccc1OC(C)C (stereo not drawn) [Compound 79]
≤ 2000 | Cc1cc(C(=O)N2CC[C@]3(c4cccc(OCC(C)C)n4)OCOC3C2)ccc1OCCOC(F)(F)F (stereo partly drawn) [Compound 80]
2000 to 5000 | Cc1cc(C(=O)N2CC[C@@]3(c4ccccc4)OCOC3C2)ccc1OC(C)C (stereo partly drawn) [Compound 81]
≤ 2000 | Cc1cc(C(=O)N2CC[C@@]3(c4nccs4)OCOC3C2)ccc1OCC(C)(C)F (stereo partly drawn) [Compound 82]
≤ 2000 | COc1cc(C(=O)N2CCC3(c4ccccc4)CC3C2)ccc1COCC(F)(F)F (stereo not drawn) [Compound 83]
≤ 2000 | O=C(c1ccc(OCC2CC2(F)F)c(C(F)(F)F)c1)N1CC[C@]2(c3ccccn3)OCOC2C1 (stereo partly drawn) [Compound 84]

IC50 [nM] | SMILES
≤ 2000 | COc1cc(C(=O)N2CC[C@]3(c4nccs4)OCOC3C2)ccc1OCCOC(F)(F)F (stereo partly drawn) [Compound 85]
≤ 2000 | COc1cc(C(=O)N2CC[C@@]3(c4nccs4)OCOC3C2)ccc1OCCOC(F)(F)F (stereo partly drawn) [Compound 86]
≤ 2000 | CC(C)(C)OCCOc1ccc(C(=O)N2CC[C@]3(c4ncccc4OCCOC(C)(C)C)OCOC3C2)cc1Cl (stereo partly drawn) [Compound 87]
≤ 2000 | COc1nc(C(=O)N2CC[C@]3(c4csc(C)n4)OCOC3C2)ccc1OCCOC(F)(F)F (stereo partly drawn) [Compound 88]
≤ 2000 | COc1cccnc1[C@]12CCN(C(=O)c3ccc(OCCOC(F)(F)F)c(C)c3)CC1OCO2 (stereo partly drawn) [Compound 89]
≤ 2000 | COc1cc(C(=O)N2CC[C@]3(c4ccccn4)OCOC3C2)ccc1OCC1CC(F)(F)C1 (stereo partly drawn) [Compound 90]
≤ 2000 | COc1cc(C(=O)N2CC[C@]3(c4ccccc4)OCOC3C2)ccc1C(C)(C)CO (stereo partly drawn) [Compound 91]
≤ 2000 | COc1cc(C(=O)N2CC[C@]3(c4ccccn4)OCOC3C2)ccc1OCCOC(F)(F)F (stereo partly drawn) [Compound 92]
≤ 2000 | COc1cc(C(=O)N2CC[C@]3(c4ncccc4F)OCOC3C2)ccc1OCCOC(F)(F)F (stereo partly drawn) [Compound 93]
≤ 2000 | COc1cccnc1[C@]12CCN(C(=O)c3ccc(OCCOC(F)(F)F)c(Cl)c3)CC1OCO2 (stereo partly drawn) [Compound 94]
≤ 2000 | Cc1cc(C(=O)N2CC[C@]3(c4ccccn4)OCOC3C2)ccc1OCC(C)(C)F (stereo partly drawn) [Compound 95]
≤ 2000 | COc1nc(C(=O)N2CC[C@]3(c4ncccc4F)OCOC3C2)ccc1OCCOC(F)(F)F (stereo partly drawn) [Compound 96]
≤ 2000 | Cc1cc(C(=O)N2CC[C@]3(c4nccs4)OCOC3C2)ccc1OCC(C)(C)F (stereo partly drawn) [Compound 97]
≤ 2000 | COc1cc(OC(C)C)ccc1C(=O)N1CCC2(c3ccccc3)CC2C1 (stereo not drawn) [Compound 98]
≤ 2000 | COc1cc(C(=O)N2CC[C@]3(c4ccc(F)cc4)OCOC3C2)ccc1OCCOC(F)(F)F (stereo partly drawn) [Compound 99]
≤ 2000 | Cc1cc(C(=O)N2CC[C@]3(c4ncccc4F)OCOC3C2)ccc1OCC(C)(C)F (stereo partly drawn) [Compound 100]
≤ 2000 | COc1cc(C(=O)N2CC[C@]3(c4ccccn4)CC3C2)ccc1OCCOC(F)(F)F (stereo partly drawn) [Compound 101]
≤ 2000 | COc1cc(C(=O)N2CC[C@]3(c4ccccc4)OCOC3C2)ccc1OCCC(F)(F)F (stereo partly drawn) [Compound 102]
≤ 2000 | CCOc1nc(C(=O)N2CC[C@]3(c4csc(C)n4)OCOC3C2)ccc1OCCOC(F)(F)F (stereo partly drawn) [Compound 103]
≤ 2000 | COc1cc(C(=O)N2CC[C@]3(c4ccccc4)CC3C2)ccc1OCC(C)(C)O (stereo partly drawn) [Compound 104]
≤ 2000 | COc1cc(C(=O)N2CC[C@]3(c4ccccn4)OCOC3C2)cc(Cl)c1OCCOC(F)(F)F (stereo partly drawn) [Compound 105]
≤ 2000 | CC(F)(F)COc1ccc(C(=O)N2CC[C@]3(c4ccccn4)OCOC3C2)cc1Cl (stereo partly drawn) [Compound 106]
≤ 2000 | COc1nc(C(=O)N2CC[C@]3(c4ccccn4)OCOC3C2)ccc1OCCOC(F)(F)F (stereo partly drawn) [Compound 107]
≤ 2000 | O=C(c1ccc(OCCOCC(F)(F)F)c(Cl)c1)N1CC[C@]2(c3ccccn3)OCOC2C1 (stereo partly drawn) [Compound 108]
≤ 2000 | Cc1cc(C(=O)N2CC[C@@]3(c4ccc(F)cc4)OCOC3C2)ccc1OCC(C)(C)F (stereo partly drawn) [Compound 109]
≤ 2000 | CC(C)(F)COc1ccc(C(=O)N2CC[C@]3(c4ccccn4)OCOC3C2)cc1Cl (stereo partly drawn) [Compound 110]
≤ 2000 | COc1nc(C(=O)N2CC[C@]3(c4nccs4)OCOC3C2)ccc1OCCOC(F)(F)F (stereo partly drawn) [Compound 111]
